{
  "source": "paper PMC5529018",
  "about": "“Discovery of novel brain permeable and G protein-biased beta-1 adrenergic receptor partial agonists for the treatment of neurocognitive disorders” (PLoS ONE, 2017)",
  "key": {"[1]": {"assay": "Brain uptake in the in vivo LPS study", "parameters": "species or system C57Bl/6J mice", "details": "C57Bl/6J, mouse, ip, mice, 3 mg/kg intraperitoneal, 105 min post-dose, read-out: concentration in brain homogenates", "description": "; subcutaneous; […]; intraperitoneal; n = 4) or vehicle (5% DMSO/20%PEG400/water; intraperitoneal; n = 12) 15 min prior to LPS (50 ug/kg; intraperitoneal). A control group was injected with vehicle 15 minutes prior to saline (n = 18). Following injections, mice were single-housed. At 90 min post-LPS/saline, mice were deeply anesthetized with isoflurane and blood was collected from the right ventricle via cardiac puncture (23 g needle) into lithium heparin-containing vials (BD microtainer plasma tubes). Subsequently, brains were collected after perfusion with phosphate-buffered saline. Plasma was separated by centrifugation (11,000 rpm for 3 minutes) within 60 min of collection and stored at -80°C until analysis. The concentration of TNFα in the collected plasma was measured by ELISA (Invitrogen, KMC3012) according to the manufacturer’s instruction. The LPS-induced inflammatory response in the CNS was assessed by measuring mRNA expression for genes related to neuroimmune activation in brain tissue according to the previously reported method. […] Fold changes of expression relative to control were determined after normalization to GAPDH. Relative quantification and fold change were calculated by the comparative CT method. Brain uptake of STD-101-D1 was determined in brain tissue. […]"}, "Sigma 2 receptor": {"biological_target": "Sigma 2 receptor (Homo sapiens, UniProt Q5BJF2)", "sequence (Q5BJF2 whole entry, species assumed)": "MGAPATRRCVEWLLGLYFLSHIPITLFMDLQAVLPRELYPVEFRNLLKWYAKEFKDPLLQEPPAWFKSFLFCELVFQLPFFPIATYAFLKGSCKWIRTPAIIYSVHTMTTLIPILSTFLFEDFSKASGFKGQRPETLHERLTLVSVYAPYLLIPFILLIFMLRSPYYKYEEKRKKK", "assay": "Radioligand binding Sigma 2 receptor", "details": "S2 Table; hot ligand [3H]DTG; read-out: Binding Affinity Ki"}, "ADR - Alpha 2C": {"biological_target": "ADR - Alpha 2C (Homo sapiens, UniProt P18825)", "sequence (P18825 whole entry)": "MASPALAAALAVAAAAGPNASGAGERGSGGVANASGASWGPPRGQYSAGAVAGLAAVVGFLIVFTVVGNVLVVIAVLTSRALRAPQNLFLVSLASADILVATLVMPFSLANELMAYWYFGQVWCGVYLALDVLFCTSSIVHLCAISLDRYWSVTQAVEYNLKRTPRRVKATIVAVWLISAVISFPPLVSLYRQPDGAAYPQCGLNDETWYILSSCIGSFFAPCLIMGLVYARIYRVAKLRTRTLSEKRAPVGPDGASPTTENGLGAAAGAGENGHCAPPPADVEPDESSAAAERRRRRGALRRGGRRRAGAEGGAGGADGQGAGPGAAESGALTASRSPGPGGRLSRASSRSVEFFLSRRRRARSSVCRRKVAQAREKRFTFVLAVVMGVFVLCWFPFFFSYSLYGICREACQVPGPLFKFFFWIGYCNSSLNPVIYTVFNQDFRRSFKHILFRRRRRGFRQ", "assay": "Radioligand binding ADR Alpha 2C", "details": "S2 Table; hot ligand [3H] Rauwolscine; read-out: Binding Affinity Ki"}, "5-HT 2B": {"biological_target": "5-HT 2B (Homo sapiens, UniProt P41595)", "sequence (P41595 whole entry, species assumed)": "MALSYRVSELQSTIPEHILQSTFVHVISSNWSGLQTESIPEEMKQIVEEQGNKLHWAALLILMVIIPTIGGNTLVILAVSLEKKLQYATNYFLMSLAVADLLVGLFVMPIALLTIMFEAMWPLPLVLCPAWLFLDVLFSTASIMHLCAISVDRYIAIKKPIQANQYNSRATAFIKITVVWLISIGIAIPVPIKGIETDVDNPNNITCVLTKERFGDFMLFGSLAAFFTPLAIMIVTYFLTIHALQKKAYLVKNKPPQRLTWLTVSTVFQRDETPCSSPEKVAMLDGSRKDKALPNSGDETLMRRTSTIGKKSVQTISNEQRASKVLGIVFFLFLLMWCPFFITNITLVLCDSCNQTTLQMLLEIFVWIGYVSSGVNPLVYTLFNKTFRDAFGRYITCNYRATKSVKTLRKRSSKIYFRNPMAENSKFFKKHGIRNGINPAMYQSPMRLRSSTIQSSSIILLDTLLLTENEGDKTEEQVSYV", "assay": "Radioligand binding 5-HT 2B", "details": "S2 Table; hot ligand [3H]LSD; read-out: Binding Affinity Ki"}, "[2]": {"assay": "Microsomal stability assay, mouse", "assay_type": "in vitro ADME", "details": "0.1 uM"}, "ADR - Alpha 2A": {"biological_target": "ADR - Alpha 2A (Homo sapiens, UniProt P08913)", "sequence (P08913 whole entry)": "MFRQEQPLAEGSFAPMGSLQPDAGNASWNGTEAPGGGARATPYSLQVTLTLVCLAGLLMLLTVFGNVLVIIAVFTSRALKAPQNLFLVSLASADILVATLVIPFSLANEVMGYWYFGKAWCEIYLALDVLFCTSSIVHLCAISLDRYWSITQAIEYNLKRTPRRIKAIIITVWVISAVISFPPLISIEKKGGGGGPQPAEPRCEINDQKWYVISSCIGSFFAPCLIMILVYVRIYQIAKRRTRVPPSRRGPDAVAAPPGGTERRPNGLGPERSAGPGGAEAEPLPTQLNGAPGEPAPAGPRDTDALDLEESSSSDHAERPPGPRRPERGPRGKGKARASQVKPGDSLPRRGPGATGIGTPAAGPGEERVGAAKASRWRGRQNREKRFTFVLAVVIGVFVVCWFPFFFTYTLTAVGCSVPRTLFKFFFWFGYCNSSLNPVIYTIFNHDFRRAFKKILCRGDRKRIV", "assay": "Radioligand binding ADR Alpha 2A", "details": "S2 Table; hot ligand [3H] Rauwolscine; read-out: Binding Affinity Ki"}, "5-HT 2C": {"biological_target": "5-HT 2C (Homo sapiens, UniProt P28335)", "sequence (P28335 33-458, species assumed)": "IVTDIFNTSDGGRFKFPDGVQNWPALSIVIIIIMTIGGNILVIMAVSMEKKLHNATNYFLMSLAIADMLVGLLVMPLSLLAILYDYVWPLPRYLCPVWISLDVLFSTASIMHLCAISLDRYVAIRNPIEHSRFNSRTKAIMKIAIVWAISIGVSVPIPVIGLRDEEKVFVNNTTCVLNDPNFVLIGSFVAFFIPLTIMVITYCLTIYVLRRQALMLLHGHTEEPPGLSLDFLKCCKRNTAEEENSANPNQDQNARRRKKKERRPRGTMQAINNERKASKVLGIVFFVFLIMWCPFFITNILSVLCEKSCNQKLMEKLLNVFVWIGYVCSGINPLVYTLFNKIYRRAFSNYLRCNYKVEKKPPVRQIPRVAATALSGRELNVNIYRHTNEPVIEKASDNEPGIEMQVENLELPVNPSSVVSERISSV", "assay": "Radioligand binding 5-HT 2C", "details": "S2 Table; hot ligand [3H]Mesulergine; read-out: Binding Affinity Ki"}, "[3]": {"test_system": "LPS-induced TNFα production in primary microglia", "assay": "In vitro primary microglia TNFα assay", "assay_type": "cell-based, Sprague Dawley rat", "details": "Rattus norvegicus, 10 μM compound, LPS 10 ng/ml, 4 hrs, ELISA, read-out: inhibition of LPS-induced TNFα production", "description": "Mixed glial cells were obtained from the cerebral cortex of Sprague Dawley rat pups at postnatal days 1–3. Briefly, neonates were euthanized by decapitation and their brain tissues were collected for cortex isolation. The isolated cortex was then trypsinized, triturated, and placed into tissue culture flasks in DMEM supplemented with 10% fetal bovine serum and 1% Penicillin/Streptomycin. After 10 days in vitro, microglia were harvested by gentle shaking of the growth flask, plated in a 96 well plate at a density of 30,000 cells/well, and incubated at 37°C overnight."}, "5-HT6": {"biological_target": "5-HT6 (Homo sapiens, UniProt P50406)", "sequence (P50406 whole entry, species assumed)": "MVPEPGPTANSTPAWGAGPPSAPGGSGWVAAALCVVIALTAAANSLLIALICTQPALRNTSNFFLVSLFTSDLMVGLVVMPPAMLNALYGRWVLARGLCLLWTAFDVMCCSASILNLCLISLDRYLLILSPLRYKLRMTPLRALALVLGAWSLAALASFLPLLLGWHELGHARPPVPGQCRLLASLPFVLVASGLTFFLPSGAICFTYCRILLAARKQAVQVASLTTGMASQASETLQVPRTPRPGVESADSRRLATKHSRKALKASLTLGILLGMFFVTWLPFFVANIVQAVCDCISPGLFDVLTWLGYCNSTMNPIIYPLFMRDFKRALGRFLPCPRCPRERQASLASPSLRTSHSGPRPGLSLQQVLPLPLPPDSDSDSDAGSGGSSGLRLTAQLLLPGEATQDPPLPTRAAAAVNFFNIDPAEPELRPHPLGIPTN", "assay": "Radioligand binding 5-HT6", "details": "S2 Table; hot ligand [3H]LSD; read-out: Binding Affinity Ki"}},
  "data": [
    {"molecule": "COc1ccccc1OCCNC[C@H](O)COc1ccc(O)cc1.COc1ccccc1OCCNC[C@H](O)COc1ccc(O)cc1.O=C(O)/C=C/C(=O)O", "note": "[STD-101-D1, (S)-4-(2-hydroxy-3-((2-(2-methoxyphenoxy)ethyl)amino)propoxy)phenol hemifumarate]", "values": [
      {"measurement": "concentration at 105 min", "setting": "[1]", "result": "130 ± 28.2", "unit": "ng/g"},
      {"measurement": "Ki", "setting": "Sigma 2 receptor", "result": 0.236, "unit": "µM"},
      {"measurement": "Ki", "setting": "ADR - Alpha 2C", "result": 0.108, "unit": "µM"},
      {"measurement": "Ki", "setting": "5-HT 2B", "result": 0.025, "unit": "µM"},
      {"measurement": "compound remaining after 60 min, mouse liver microsomes", "setting": "[2]", "result": 62.8, "unit": "%"},
      {"measurement": "Ki", "setting": "ADR - Alpha 2A", "result": 1.17, "unit": "µM"},
      {"measurement": "Ki", "setting": "5-HT 2C", "result": 1.15, "unit": "µM"},
      {"measurement": "inhibition at 10 µM", "setting": "[3]", "result": "~50", "unit": "%"},
      {"measurement": "Ki", "setting": "5-HT6", "result": 1.77, "unit": "µM"}
    ]}
  ]
}
